{"source": "patent US20250270648A1", "about": "“MOLECULAR SIGNATURE FOR ASSESSING THE RESPONSIVENESS OF CANCER TO MITOCHONDRIA-TARGETED ANTIOXIDANTS” (UNIVERSITÉ CATHOLIQUE DE LOUVAIN, priority 2021, published 2025)", "key": {"[1]": {"test_system": "MDA-MB-436 cells", "experiment": "Western blotting (EMT proteins)", "format": "cell-based, human", "conditions": "MitoQ 500 nM, 48 h", "protocol": "For western blotting (WB), whole-protein extracts from MDA-MB-231, SkBr3 and MDA-MB-436 cells were prepared using RIPA buffer (50 mM Tris pH 7.4, 150 mM NaCl, 1% Triton-X-100, 0.05% sodium deoxycholate, 1 mM EDTA, 0.1% SDS, protease inhibitor cocktail and PhosSTOP Phosphatase Inhibitor Cocktail (Roche®)), centrifuged at 10,000×g for 10 min, and quantified using the Bio-Rad® Protein Assay. Proteins (50 μg for MDA-MB-231 and 100 μg for SkBr3 and MDA-MB-436 cells) were loaded into each lane of a 10-12% polyacrylamide gel in the presence of SDS, and were allowed to separate at 120 V for 90 min. The transfer of proteins onto nitrocellulose membranes was performed using an iBlot 2 Dry Blotting System (Thermo Fisher Scientific®) with the 7 min P0 program. Membranes were then blocked using 5% (w/v) powdered milk for 1 h, and incubated overnight at 4° C. with a primary antibody (Table 4).\nβ-actin served as a loading control. Immunodetection was performed at room temperature for 1 h using as secondary antibodies a horseradish peroxidase-conjugated goat anti-rabbit (Jackson®, Cat #111-035-003) and goat anti-mouse (Jackson®, Cat #115-035-003) in PBS-Tween containing 5% (w/v) milk or BSA. Detection was performed with ECL reagent (Amersham®, Cat #RPN2209), and protein bands were visualized and captured using ECL imager 600 (Amersham®). They were analyzed using the Image J software (Java)."}, "[2]": {"test_system": "MDA-MB-231 cells", "experiment": "Cell cycle, flow cytometry with propidium iodide", "format": "cell-based, human", "conditions": "MitoQ 100 nM, 48 h", "protocol": "Cells were seeded in 6-well plates at a density of 500,000 cells/well and allowed to adhere overnight. Cells were then starved in 0.1% FBS medium for 24 h and treated for 48 h±MitoQ. Afterwards, they were detached with trypsin-EDTA (0.05%) (Gibco®, cat #25300054) and centrifuged at 1,200 rpm for 5 min. Culture medium was discarded, and the pellets washed. Cells were fixed by adding 700 μL of ice-cold ethanol 100% in 300 μL of cell suspension in PBS. Cells were then washed twice with 1 mL of Tris buffer with 0.2% (v/v) Triton X-100, and finally resuspended in 300 μL of PBS with RNase (0.2 mg/mL) and propidium iodide (5 μg/mL). At least 10^4 events were acquired using a FACSCalibur™ flow cytometer (Becton Dickinson®), and the FlowJo cell cycle analysis tool was used to analyze data according to DNA content."}, "[3]": {"test_system": "MDA-MB-436 spheroids", "experiment": "Spheres / stem-like spheroids", "format": "cell-based, human", "conditions": "increasing doses of MitoQ, over 1 week", "protocol": "3D models were used to obtain an enriched population in stem cells. For that, 10^4 MDA-MB-231, SkBr3 or MDA-MB-436 cancer cells were grown in suspension using 10 cm dishes coated with Polyhema in stem-cell medium: DMEM/F-12 (Gibco®, cat #11320033) supplemented with 100 units/mL penicillin, 100 μg/mL streptomycin, 20 μL/mL B27 (Gibco®, cat #17504044), 20 ng/mL human recombinant epithelial growth factor (EGF) (Peprotech®, cat #AF-100-15), 10 ng/mL basic fibroblast growth factor (bFGF; Peprotech®, cat #100-18B) and 2.5 mg/mL insulin. When spheres reached around 100 μm in diameter, they were washed with PBS and dissociated with accutase (Stem Cell Technology®, cat #07920) in order to have single cells again. […] Images were captured on Axiovert™ 40 CFL microscope equipped with a MRC camera. At the end of the treatment, living cells were collected for RNA extraction.\nStem like-spheroids were prepared by seeding 5,000 MDA-MB-231, SkBr3 or MDA-MB-436 dissociated spheres/well in ultra-Low attachment 96-well plates (Corning®, cat #7007) in stem cell medium supplemented as described above. […] Spheroid growth was monitored using an Axio Observer live-cell phase contrast microscope (Zeiss®)."}, "[4]": {"test_system": "MDA-MB-231 and SkBr3 cells in culture", "experiment": "RT-qPCR validation of mRNA biomarkers in vitro", "format": "cell-based, human", "conditions": "MitoQ 500 nM, 48 h", "protocol": "Total mRNA from MDA-MB-231, SkBr3 and MDA-MB-436 cells treated ±MitoQ for 48 h was extracted using the NucleoSpin RNA Kit (Macherey-Nagel®). Total mRNA from primary tumors was extracted with Tri reagent (Molecular Research Center®, Cat #TR118). mRNAs were quantified by the Qubit BR dsRNA assay kit (Thermo Fisher Scientific®), and mRNA integrity was evaluated on an Agilent® 2100 Bioanalyzer with the RNA 6000 nano kit (Agilent®). It was reverse transcribed in complementary DNA using the High-Capacity cDNA Reverse Transcription Kit (Applied Biosystems®, cat #4368814) according to manufacturer's protocol. Complementary DNA (500 ng) was amplified by real time quantitative PCR (RT-qPCR) using the low ROX SYBR Master Mix dTTP Blue (Eurogentec®) and primers listed in Table 5 and Table 6 on a ViiA 7 Real-Time PCR System (Thermo Fisher Scientific®). Gene expression was normalized to β-actin gene expression.\nWhile EMT and sternness markers are usual suspects when testing antimetastatic strategies, it was decided to go deeper in the understanding of the molecular effects of MitoQ, and performed unbiased RNA sequencing (RNAseq) using cells treated for 48 h±MitoQ (500 nM). […] On independent samples upon the same conditions (including |log 2 Fold Change|>1 and P<0.01), RT-qPCR on the two cell lines validated all genes as potential biomarkers of human breast cancer cell response to MitoQ, to the exception of EID1, PEG10, FTH1 and NUPR1 (FIG. 12A-M and Table 7)."}, "[5]": {"test_system": "human MCF7 breast cancer cells", "experiment": "Cell viability, CellTiter-Glo", "format": "cell-based", "conditions": "increasing doses of DXR ±100 nM MitoQ, 48 h", "protocol": "(§1) Cells were plated in 96-well plates and left to adhere for 16 hours. In order to avoid reaching full confluence at the endpoint, starting cell count was defined according to doubling time and the duration of the experiment. Following adhesion, cells were treated with the indicated compounds for 48 h, after which staining was done with a CellTiter-Glo Luminescent Cell Viability assay (Promega®, catalogue #G7570), according to supplier's instructions. This method is based on the quantification of intracellular ATP levels."}, "[6]": {"test_system": "murine 4T1 breast cancer cells", "experiment": "Cell viability, CellTiter-Glo", "format": "cell-based, mouse", "conditions": "increasing doses of DXR ±100 nM MitoQ, 48 h", "protocol": "as §1"}}, "data": [{"compound": "COC1=C(OC)C(=O)C(CCCCCCCCCC[P+](c2ccccc2)(c2ccccc2)c2ccccc2)=C(C)C1=O", "note": "[MitoQ]", "values": [{"measurement": "protein expression of Vimentin, SNAI1, SNAI2 (SLUG), ZEB1 and TWIST1", "setting": "[1]", "value": "decrease"}, {"measurement": "cell cycle", "setting": "[2]", "value": "not altered"}, {"measurement": "spheroid formation", "setting": "[3]", "value": "dose-dependently retarded"}, {"measurement": "ASNS transcript upregulated in response to MitoQ: Validated in vitro", "setting": "[4]", "value": "+ (Repressed or induced by ≥2-fold with P < 0.01 in both MDA-MB-231 and SkBr3 cells in culture.)"}, {"measurement": "G6PD transcript upregulated in response to MitoQ: Validated in vitro", "setting": "[4]", "value": "+ (Repressed or induced by ≥2-fold with P < 0.01 in both MDA-MB-231 and SkBr3 cells in culture.)"}, {"measurement": "PCK2 transcript upregulated in response to MitoQ: Validated in vitro", "setting": "[4]", "value": "+ (Repressed or induced by ≥2-fold with P < 0.01 in both MDA-MB-231 and SkBr3 cells in culture.)"}, {"measurement": "PHGDH-1 transcript upregulated in response to MitoQ: Validated in vitro", "setting": "[4]", "value": "+ (Repressed or induced by ≥2-fold with P < 0.01 in both MDA-MB-231 and SkBr3 cells in culture.)"}, {"measurement": "PSAT1 transcript upregulated in response to MitoQ: Validated in vitro", "setting": "[4]", "value": "+ (Repressed or induced by ≥2-fold with P < 0.01 in both MDA-MB-231 and SkBr3 cells in culture.)"}, {"measurement": "SERPINE1 transcript upregulated in response to MitoQ: Validated in vitro", "setting": "[4]", "value": "+ (Repressed or induced by ≥2-fold with P < 0.01 in both MDA-MB-231 and SkBr3 cells in culture.)"}, {"measurement": "SLC6A9 transcript upregulated in response to MitoQ: Validated in vitro", "setting": "[4]", "value": "+ (Repressed or induced by ≥2-fold with P < 0.01 in both MDA-MB-231 and SkBr3 cells in culture.)"}, {"measurement": "SLC7A11 transcript upregulated in response to MitoQ: Validated in vitro", "setting": "[4]", "value": "+ (Repressed or induced by ≥2-fold with P < 0.01 in both MDA-MB-231 and SkBr3 cells in culture.)"}, {"measurement": "TXNRD1 transcript upregulated in response to MitoQ: Validated in vitro", "setting": "[4]", "value": "+ (Repressed or induced by ≥2-fold with P < 0.01 in both MDA-MB-231 and SkBr3 cells in culture.)"}, {"measurement": "DXR-induced cell killing", "setting": "[5]", "value": "did not interfere"}, {"measurement": "DXR-induced cell killing", "setting": "[6]", "value": "did not interfere"}]}]}
